These results are taken from patent US20250120942A1, “BRAIN FUNCTION IMPROVING AGENT” (OSAKA UNIVERSITY, priority 2021, published 2025).

The subject of assay [1] is scopolamine-induced amnesia mouse. Briefly: Y-maze test, short-term working memory of scopolamine-induced amnesia mouse (Test Example 2). Type of assay: in vivo, ddY mouse. The settings on record: for scopolamine-induced reduction in working memory (Spontaneous Alternation): FIG. 2(C). How it is done:
The effect of inhibiting lowering of short-term memory was examined by orally or subcutaneously (intraperitoneally) administering the compound A to the mouse.
7-weeks-old male ddY mice were purchased from Japan SLC, Inc. and subjected to the experiment after one week habituation period. The animals were reared in the rearing chamber provided with air conditioner (under the condition that the temperature was 22° C.±1° C., the relative humidity was 50±10%, and the irradiation time was 12 hours (8:00 to 20:00)). The feeding method was that the commercially available MF powdery feed (manufactured by Oriental Yeast Co., ltd.) and tap water were taken freely.
The compound A prepared according to the procedure described in Manufacturing Example 1 was dissolved in 2.5% DMSO solution in advance. There were 15 mice in each group, and the 30 mg/kg compound administration group and the 10 mg/kg compound administration group were established and orally administered. The mice of the control group and Vehicle group were orally administered with only 2.5% DMSO solution. In the same manner the compound B and the compound C were orally administered to 10 mice at a dose of 30 mg/kg respectively. Each mouse of the administration groups of the compound A to C and the vehicle group was intraperitoneally administered with scopolamine hydrobromide (manufactured by Sigma-Aldrich Japan S1875) (a dose of 1 mg/kg) which is muscarinic acetylcholine receptor antagonist 30 minutes after the administration. The mice of the control group which were not administered with scopolamine hydrobromide were intraperitoneally administered with (Japanese Pharmacopoeia) physiological saline solution (OTSUKA NORMAL SALINE 3311401A2026). At 30 minutes after the final administration, Y-maze test was conducted, and the working memory was evaluated. The test using the mice orally administered was separately conducted under the same condition as that described above for comparative evaluation of the intraperitoneal administration.
The Y-maze manufactured by Brain Science. idea Co., Ltd. was used for the test. The maze was the maze 3 courses of which were made into Y-letter shape having one selection point and arranged at interval of an angle of 120 degree. […] The mouse put on the gray course (made of polyvinyl chloride) was kept in the conditions and the mouse can see nothing but the upper part. Any one of the 3 courses of the maze was set as a starting point. After placing the mouse quietly at the starting point, the number of the times the mouse entered each course was record per 8 minutes, and as well as which course and in what order the mouse entered it. The ratio of the number of three consecutive entries into different courses (the number of the alternation behavior) to the total number of the selections was calculated as Spontaneous Alternation (%) according to the following formula and was used as an index of the short-term working memory.
From the results obtained, the mean (Mean) and the standard error (SEM) were calculated. The significant difference between the control group and the Vehicle group and between the compound A administration group and the Vehicle group was assessed by Turkey-Kramer's test. The level of significance was set to *P<0.05 and **p<0.01.

Assay [2] relates to model mouse with the inflammation in brain induced by administering LPS. Kind of assay: Forced swimming test in mouse with inflammation in brain induced by LPS (Test Example 5). The assay is classed as in vivo, C57/BL6J mice. Particulars: test 24 hours after LPS, FIG. 5. From the text: In regard to the depressive symptoms induced by taking LPS (Lipopolysaccharide), the effect of inhibiting the symptom by oral administration of the compound A was examined. The inflammation in the brain is thought to be one of the main onset factors of depression. It is known that LPS causes the inflammation in the brain by inducing the decrease in brain-derived neurotrophic factor and the variation of the density of dendrite of neuron, activating microglia and the like and induce depressive symptoms. […]
In 24 hours after the intraperitoneal administration of LPS, forced swimming test was conducted. The depressive symptoms were evaluated by measurement of the immobility time.
Water (25±1° C.) was put into the acryl resin cylinder (diameter 19 cm, height 25 cm) up to a height of 13 cm. The subject mouse was forced to swim for 6 minutes one by one and the state was video-recorded. […] “The state that the mouse floated on the water surface without moving its limbs and the like” was regarded as immobility and the Immobility Time (sec.) was measured during the test of 6 minutes.
From the results obtained, the mean (Mean) and the standard error (SEM) were calculated. The significant difference was assessed between the control group and Vehicle group and between the compound A administration group and the […] by using Turkey-Kramer's test. […]

In assay [3] the test system is mouse reared in long-term isolation. Kind of assay: Forced swimming test in mouse reared in long-term isolation (Test Example 6). The assay is classed as in vivo, ddY mouse. The settings on record: test 30 minutes after administration, 5 weeks isolation, FIG. 6. The procedure: The psychiatric disorder model mouse which was reared in isolation for 5 weeks was orally administered with the compound A and 30 minutes after the administration subjected to the Forced swimming test. The effect of improving depressive symptoms was examined.
The 3-weeks old male ddY mouse which was reared in isolation for 5 weeks in the same manner as in Test Example 3 was used for the test.
The compound A was dissolved in 2.5% DMSO solution in advance. After long-term isolated rearing the mice were divided into 3 groups of 7 mice and the administration groups of the compound A (the administration group of 30 mg/kg, the administration group of 10 mg/kg) and Vehicle group (the administration group of 2.5% DMSO solution) were set and the oral administration was carried out.
In 30 minutes after the oral administration, the forced swimming test was carried out in the same manner as in Test Example 5. The immobility time was measured during the test of 6 minutes and the depressive symptoms of the mouse was evaluated.
From the results obtained, the mean (Mean) and the standard error (SEM) were calculated. The significant difference was assessed between the compound A administration group and the Vehicle group by using Dunnett's test. The level of significance was set to *P<0.05. The vertical axis of the graph in FIG. 6 represents the immobility time during the test.

In the case of `O=C1CC[C@H](Cc2cc(O)cc(O)c2)O1` [compound A, (R)-5-(3,5-dihydroxyphenyl)-γ-valerolactone], in assay [1] (oral 30 mg/kg, scopolamine 1 mg/kg i.p., FIG. 2(A),(B)), the “ameliorating the impairment of short-term working memory (Spontaneous Alternation)” value is “significant effect of inhibiting the lowering of short-term working memory”. For the same compound, the “lowering of the short-term memory due to scopolamine (Spontaneous Alternation)” value in assay [1] (oral administration groups (10 mg/kg and 30 mg/kg), scopolamine 1 mg/kg i.p. 30 minutes later, FIG. 2(A)) is recorded as “inhibited”. Also, the “scopolamine-induced reduction in working memory (Spontaneous Alternation)” value in assay [1] (oral administration) and in assay [1] (subcutaneous administration) was “inhibited scopolamine-induced reductions in working memory” throughout. For the same compound, the “increase of the immobility time in forced swimming test” value in assay [2] (oral 10 mg/kg and 30 mg/kg groups, LPS 0.5 mg/kg i.p. 30 minutes later) is on record as “reduced”. Moreover, the “immobility time in forced swimming test” value in assay [2] (oral 30 mg/kg, LPS 0.5 mg/kg i.p.) is given as “on the same level as that in the control group”. For the same compound, the “immobility time in forced swimming test versus vehicle group” value in assay [3] (oral 10 mg/kg) and in assay [3] (oral 30 mg/kg) was “significantly reduced” in each case.
